The conditions of data set [1]: given orally; cited from earlier work.
Data set [2] relates to bone cell suspension, including osteoclasts and other cell types. The following applies: FIG. 3, concentrations up to 10^−4M, Sodium Salt.
Description: Sterile, devitalized discs of dentine (diameter 4 mm) where prepared and placed in a 96 well tissue culture plate, one disc per well, and pre-wet overnight in α-MEM tissue culture medium supplemented with 10% fetal calf serum. The femora and tibiae where dissected from 18 day chick embryos and transferred into α-MEM culture medium supplemented with 10% fetal calf serum.
The bones were finely minced using a sharp scalpel and the resulting suspension was triturated using a sterile pipette and transferred to a sterile plastic tube. The suspension was allowed to stand for one minute so that fragments of bone and other debris settled and the upper layer containing a bone cell suspension, including osteoclasts and other cell types, was harvested.
Aliquots of this bone cell suspension were added to the culture wells containing the devitalized dentine discs. Cells where allowed to settle for between 2 and 24 hours. The medium was then removed and new medium containing the test reagents was added. Cells where cultured for periods of time up to 72 hours after which time the dentine discs were washed in PBS at 37° C., fixed in 4% glutaraldehyde in 0.2 M sodium cacodylate, and stained for 5 minutes in 1% (w/v) toluidine blue in 0.5% disodium tetraborate. Excess stain was removed by washing in 70% ethanol for one minute. The dentine discs were then washed in tap water and air-dried.
A further data set deals with osteoclasts. The data set is described as follows: Assay of bone resorption in vitro (bone slice assay). The class given is cell-based. The conditions noted are these: chick embryo bone cells on dentine discs; FIG. 1 (MH2 vs MH3), FIG. 2 (alendronate vs glucoside). As for the experimental part: Resorption lacunae where identified and quantitated using an Olympus BH2 microscope fitted for incident light microscopy. The plan area of resorption was determined by point counting using a ×10 objective and a drawing tube. The total area of each disc was analyzed.

Like-named read-outs stand apart in the source and are kept apart here.

For `NCCCC(O)(P(=O)(O)O)P(=O)(O)O` [FOSAMAX, alendronate sodium], in data set [1], the “drug absorbed from the gut, on average” value is “about 0.7%”.
`O=P([O-])(O)C(O)(CCCNC1O[C@H](CO)[C@@H](O)[C@H](O)[C@H]1O)P(=O)(O)O.[Na+]` (stereo partly shown) [glucoside, N-glucopyranosyl Alendronate Sodium Salt]: the “toxicity (cell number)” value in data set [2] is given as “substantially no toxicity”; in data set [2] (listed as alendronate glycoside), “substantially less toxicity than unglycosylated alendronate”.
`CC(Nc1ccc(O)cc1)(P(=O)(O)O)P(=O)(O)O` [MH2, 1-((4-hydroxyphenyl)amino)ethylidene-1,1-diphosphonic acid]: the “effect on bone resorption (plan area of resorption lacunae on dentine discs)” value in the data set with osteoclasts is reported as “substantially less effect than MH3”.

The values are drawn from US20020002140A1, “Novel bisphosphonates and uses thereof” (priority 2000, published 2002).
